Assay type in all cases: cell-based
The target in test [1] is T1, human muscarinic M1 receptor (Homo sapiens, UniProt P11229).
T1 sequence (P11229 1-460): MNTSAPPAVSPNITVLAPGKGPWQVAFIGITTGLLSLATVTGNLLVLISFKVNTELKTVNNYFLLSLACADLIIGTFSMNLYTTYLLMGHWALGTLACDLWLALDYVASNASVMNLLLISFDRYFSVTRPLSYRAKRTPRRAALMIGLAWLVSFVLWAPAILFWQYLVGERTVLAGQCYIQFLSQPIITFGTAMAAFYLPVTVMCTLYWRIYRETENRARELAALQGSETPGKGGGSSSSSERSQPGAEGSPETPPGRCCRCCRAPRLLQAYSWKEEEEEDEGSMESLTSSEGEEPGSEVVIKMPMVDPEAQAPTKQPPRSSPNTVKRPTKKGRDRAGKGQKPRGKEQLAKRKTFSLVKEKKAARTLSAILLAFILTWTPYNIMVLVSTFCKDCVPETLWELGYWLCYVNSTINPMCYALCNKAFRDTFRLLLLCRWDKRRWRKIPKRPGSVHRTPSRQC
The test can be described thus: Alphascreen Surefire phospho-ERK1/2 functional assay, M1. The following applies: for EC50 / % Emax cf. ACh, M1 / pEC50 M1: CHO cells stably expressing human M1; for EC50 / pEC50 M1: agonist 5 min, 37° C.; for EC50: read-out: pEC50 M1 (converted); for Emax: CHO, read-out: % Emax cf. ACh, M1, CHO cells stably expressing human M1; for Emax / % Emax cf. ACh, M1: Emax compared with ACh. As for the experimental part:
(§1) ERK1/2 phosphorylation is a downstream consequence of both Gq/11 and Gi/o protein coupled receptor activation, making it highly suitable for the assessment of M1, M3 (Gq/11 coupled) and M2, M4 receptors (Gi/o coupled), rather than using different assay formats for different receptor subtypes. CHO cells stably expressing the human muscarinic M1, M2, M3 or M4 receptor were plated (25K/well) onto 96-well tissue culture plates in MEM-alpha+10% dialysed FBS. Once adhered, cells were serum-starved overnight. Agonist stimulation was performed by the addition of 5 μL agonist to the cells for 5 min (37° C.). Media was removed and 50 μL of lysis buffer added. After 15 min, a 4 μL sample was transferred to 384-well plate and 7 μL of detection mixture added. Plates were incubated for 2 h with gentle agitation in the dark and then read on a PHERAstar plate reader.
(§2) pEC50 and Emax figures were calculated from the resulting data for each receptor subtype.
(In general: In Alpha technology, singlet oxygen from a donor bead excites a nearby acceptor bead.)

The target in test [2] is T2, human muscarinic M4 receptor (Homo sapiens, UniProt P08173).
T2 construct: expressed in transfected cells
T2 sequence (P08173 1-479): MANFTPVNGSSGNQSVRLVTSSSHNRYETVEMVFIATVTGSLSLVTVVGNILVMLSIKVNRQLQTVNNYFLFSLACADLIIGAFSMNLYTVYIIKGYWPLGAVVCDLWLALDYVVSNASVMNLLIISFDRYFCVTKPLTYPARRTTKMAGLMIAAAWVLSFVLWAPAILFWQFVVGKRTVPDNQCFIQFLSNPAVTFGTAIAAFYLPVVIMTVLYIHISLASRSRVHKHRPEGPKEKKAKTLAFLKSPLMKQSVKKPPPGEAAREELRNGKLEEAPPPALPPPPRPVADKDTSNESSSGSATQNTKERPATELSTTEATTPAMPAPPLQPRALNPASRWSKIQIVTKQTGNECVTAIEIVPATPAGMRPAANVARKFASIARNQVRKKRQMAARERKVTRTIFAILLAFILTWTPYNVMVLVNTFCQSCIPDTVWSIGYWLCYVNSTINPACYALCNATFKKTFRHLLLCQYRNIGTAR
In words: Alphascreen Surefire phospho-ERK1/2 functional assay, M4. To be noted: for EC50: read-out: pEC50 M4 (converted); for Emax: CHO, read-out: % Emax cf. ACh, M4, CHO cells stably expressing human M4; for Emax / % Emax cf. ACh, M4: Emax compared with ACh. As for the experimental part:
as §1, §2

The target of test [3] is T3, human muscarinic M3 receptor (Homo sapiens, UniProt P20309).
T3 construct: expressed in transfected cells
In words: Alphascreen Surefire phospho-ERK1/2 functional assay, M3. To be noted: for EC50 / % Emax cf. ACh, M3 / pEC50 M3: CHO cells stably expressing human M3; for EC50 / pEC50 M3: agonist 5 min, 37° C.; for EC50: read-out: pEC50 M3 (converted); for Emax: CHO, read-out: % Emax cf. ACh, M3, CHO cells stably expressing human M3; for Emax / % Emax cf. ACh, M3: Emax compared with ACh. As for the experimental part:
as §1, §2

The target of test [4] is T4, human muscarinic M2 receptor (Homo sapiens, UniProt P08172).
T4 sequence (P08172 1-466): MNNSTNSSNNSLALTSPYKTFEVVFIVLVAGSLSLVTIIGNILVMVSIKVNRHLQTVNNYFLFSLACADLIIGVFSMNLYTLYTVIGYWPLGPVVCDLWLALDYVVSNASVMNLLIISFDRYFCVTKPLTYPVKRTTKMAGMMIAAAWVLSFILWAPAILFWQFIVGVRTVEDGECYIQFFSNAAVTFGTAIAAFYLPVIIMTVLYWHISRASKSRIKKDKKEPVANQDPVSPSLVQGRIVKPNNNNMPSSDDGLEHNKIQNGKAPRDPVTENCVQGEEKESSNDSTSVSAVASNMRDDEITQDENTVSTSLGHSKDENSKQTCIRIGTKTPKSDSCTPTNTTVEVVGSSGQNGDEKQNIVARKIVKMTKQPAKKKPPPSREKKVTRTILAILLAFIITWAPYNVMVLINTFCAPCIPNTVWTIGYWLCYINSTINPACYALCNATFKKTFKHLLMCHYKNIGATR
In words: Alphascreen Surefire phospho-ERK1/2 functional assay, M2. The following applies: for EC50 / % Emax cf. ACh, M2 / pEC50 M2: CHO cells stably expressing human M2; for EC50 / pEC50 M2: agonist 5 min, 37° C.; for EC50: read-out: pEC50 M2 (converted); for Emax: CHO, read-out: % Emax cf. ACh, M2, CHO cells stably expressing human M2; for Emax / % Emax cf. ACh, M2: Emax compared with ACh. As for the experimental part:
as §1, §2

The mark [5] stands for this setting: CHO cells stably expressing human M4, agonist 5 min, 37° C.
[6] abbreviates: CHO cells stably expressing human M4.

Consider 17 compounds from US11208396B2, “Oxime compounds as agonists of the muscarinic M1 and/or M4 receptor” (Heptares Therapeutics Limited, priority 2015, dated 2021).

Molecules are shown by their SMILES.

T3 sequence (P20309 whole entry): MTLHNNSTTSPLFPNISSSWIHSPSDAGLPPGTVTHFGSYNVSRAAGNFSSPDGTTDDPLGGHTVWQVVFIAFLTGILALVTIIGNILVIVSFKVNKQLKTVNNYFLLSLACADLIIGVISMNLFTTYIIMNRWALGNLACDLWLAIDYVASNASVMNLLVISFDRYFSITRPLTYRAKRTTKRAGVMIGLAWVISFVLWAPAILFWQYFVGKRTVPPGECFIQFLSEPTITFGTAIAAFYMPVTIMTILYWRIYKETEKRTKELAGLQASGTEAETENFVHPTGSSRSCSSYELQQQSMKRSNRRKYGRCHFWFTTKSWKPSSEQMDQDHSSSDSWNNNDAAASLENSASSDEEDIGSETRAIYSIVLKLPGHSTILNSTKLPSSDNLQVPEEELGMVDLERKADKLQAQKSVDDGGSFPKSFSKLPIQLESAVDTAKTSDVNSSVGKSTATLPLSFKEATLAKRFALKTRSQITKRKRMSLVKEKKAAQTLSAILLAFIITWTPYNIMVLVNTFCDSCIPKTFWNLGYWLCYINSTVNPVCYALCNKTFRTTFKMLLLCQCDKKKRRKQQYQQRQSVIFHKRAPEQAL

As a reminder, the Emax is the greatest response seen or fitted, relative to the assay's reference. For the compound `CCOC(=O)N1CCCC(N2CCC(C(=NOC)NCC(C)C)CC2)CC1` (racemic) [3-1 Mixture of isomers], the EC50 in test [1] is 251 nM; in test [2] (setting [5]), 398 nM. Besides, the figures for the Emax in test [1] and in test [2] were 136% and 56%, respectively.

Take `CCON=C(C)C1CCN(C2CCCN(C(=O)OCC)CC2)CC1` (single isomer, unassigned) [1-7 Isomer 1 (racemic)]: the EC50 in test [1] and in test [2] (setting [5]) was 631 nM in each case. For the same compound, the results for the Emax in test [1] and in test [2] were 48% and 52%, respectively.

In the case of `CCCC(=NOC)C1CCN([C@H]2CCCN(C(=O)OCC)CC2)CC1` (single isomer, unassigned) [(S)-1-3 Isomer 2], the EC50 is above 20000 nM in test [3], 251 nM in test [1], above 20000 nM in test [4] and 25.1 nM in test [2] (setting [5]). In addition, the maximum response (Emax) in test [3] was found to be 0%; in test [1], 93%; in test [4], 7%; in test [2], 126%.

Take `CCCON=C(C)C1CCN(C2CCCN(C(=O)OCC)CC2)CC1` (single isomer, unassigned) [1-8 Isomer 2 (racemic)]: in test [1], the “% Emax cf. ACh, M1” value is reported as 85% and the EC50 is 316 nM. Also, in test [2] (setting [6]), the “% Emax cf. ACh, M4” value came to 50%. In addition, the EC50 in test [2] (setting [5]) was 316 nM.

In the case of `CCCON=C(C)C1CCN(C2CCCN(C(=O)OCC)CC2)CC1` (single isomer, unassigned) [1-8 Isomer 1 (racemic)], the EC50 in test [1] and in test [2] (setting [5]) was 794 nM throughout. Further, the Emax in test [1] came out at 65%; in test [2] it was 46%.

Regarding `CCOC(=O)N1CCC[C@H](N2CCC(C(CC)=NOC)CC2)CC1` (single isomer, unassigned) [(S)-1-2 Isomer 2], in test [3], the “% Emax cf. ACh, M3” value turned out to be 7% and the “pEC50 M3” value is below 4.7. Moreover, in test [1], the “% Emax cf. ACh, M1” value worked out at 36% and the EC50 was 501 nM. Moreover, in test [4], the “% Emax cf. ACh, M2” value is 5% and the “pEC50 M2” value is recorded as below 4.7. The “% Emax cf. ACh, M4” value in test [2] (setting [6]) was 81%. For the same compound, the EC50 in test [2] (setting [5]) was 50.1 nM.

Turning to `CCOC(=O)N1CCCC(N2CCC(C(=NOC)C(C)C)CC2)CC1` (single isomer, unassigned) [1-4 Isomer 1 (racemic)], the EC50 in test [3] was above 20000 nM; in test [1] it was 398 nM; in test [4], above 20000 nM; in test [2] (setting [5]), 50.1 nM. In addition, the results for the Emax in test [3], in test [1] and in test [2] were 5%, 87% and 115%, respectively. Further, in test [4], the “% Emax cf. ACh, M2” value was 24%.

For `CCOC(=O)N1CCCC(N2CCC(C(=NOC)C(C)C)CC2)CC1` (single isomer, unassigned) [1-5 Isomer 2 (racemic)], in test [3], the “% Emax cf. ACh, M3” value came to 4% and the “pEC50 M3” value is reported as below 4.7. Besides, in test [1], the “% Emax cf. ACh, M1” value stood at 105% and the “pEC50 M1” value stood at 6.5. In test [4], the “% Emax cf. ACh, M2” value was found to be 22% and the “pEC50 M2” value is below 4.7. In addition, the “% Emax cf. ACh, M4” value in test [2] (setting [6]) amounted to 104%. Besides, in test [2] (setting [5]), the “pEC50 M4” value was found to be 7.5.

On to `CCCON=C(CC)C1CCN(C2CCCN(C(=O)OCC)CC2)CC1` (single isomer, unassigned) [1-11 Isomer 2 (racemic)], for which the EC50 in test [3] is above 20000 nM; in test [1] it was 158 nM; in test [4] it was above 20000 nM; in test [2] (setting [5]), 63.1 nM. Further, the Emax in test [3] came to 6%; in test [4], 19%. Moreover, the “% Emax cf. ACh, M1” value in test [1] came to 99%. Also, in test [2] (setting [6]), the “% Emax cf. ACh, M4” value was found to be 97%.

On to `CCOC(=O)N1CCCC(N2CCC(C(C#N)=NOC(C)C)CC2)CC1` (mixture of isomers) [4-1 Mixture of isomers], for which the EC50 in test [3] is above 20000 nM; in test [1] it was 100 nM; in test [4] it was above 20000 nM; in test [2] (setting [5]) it was 79.4 nM. The Emax in test [3] came to 5%; in test [1], 109%; in test [4], 4%; in test [2] it was 72%.

Regarding `CCOC(=O)N1CCCC(N2CCC(C(C)=NOC)CC2)CC1` (single isomer, unassigned) [1-1 Isomer 2 (racemic)], the EC50 was above 20000 nM in test [3], 1580 nM in test [1], above 20000 nM in test [4] and 126 nM in test [2] (setting [5]). For the same compound, the Emax was found to be 1% in test [3], 54% in test [1], 4% in test [4] and 71% in test [2].

For `CCOC(=O)N1CCCC(N2CCC(C(C)=NOC(C)C)CC2)CC1` (single isomer, unassigned) [1-9 Isomer 1 (racemic)], in test [1], the EC50 is 631 nM and the maximal response (Emax) came out at 57%. In test [2] (setting [6]), the “% Emax cf. ACh, M4” value is 0%. In addition, the EC50 in test [2] (setting [5]) was above 20000 nM.

As for `CCOC(=O)N1CCC[C@H](N2CCC(C(C)=NOC)CC2)CC1` (single isomer, unassigned) [(S)-1-1 Isomer 1], the figures for the EC50 in test [1] and in test [2] (setting [5]) were 631 nM and 200 nM, respectively. For the same compound, in test [1], the Emax turned out to be 47%. In addition, in test [2] (setting [6]), the “% Emax cf. ACh, M4” value stood at 31%.

Turning to `CCON=C(C)C1CCN(C2CCCN(C(=O)OCC)CC2)CC1` (single isomer, unassigned) [1-7 Isomer 2 (racemic)], in test [1], the “% Emax cf. ACh, M1” value was determined as 66%. Besides, the EC50 in test [1] is 501 nM; in test [2] (setting [5]), 251 nM. Also, the “% Emax cf. ACh, M4” value in test [2] (setting [6]) is 62%.

As for `CCCC(=NOC)C1CCN(C2CCCN(C(=O)OCC)CC2)CC1` (single isomer, unassigned) [1-3 Isomer 1 (racemic)], the EC50 in test [1] is 316 nM; in test [2] (setting [5]), 25.1 nM. Besides, the figures for the Emax in test [1] and in test [2] were 106% and 85%, respectively.

With `CCOC(=O)N1CCCC(N2CCC(C(C)=NOC(C)C)CC2)CC1` (single isomer, unassigned) [1-9 Isomer 2 (racemic)], in test [1], the “% Emax cf. ACh, M1” value stood at 46% and the “pEC50 M1” value came out at 6.2. Besides, in test [2] (setting [6]), the “% Emax cf. ACh, M4” value was 81%. For the same compound, the EC50 in test [2] (setting [5]) is 398 nM.

Turning to `CCCON=C(CC)C1CCN(C2CCCN(C(=O)OCC)CC2)CC1` (single isomer, unassigned) [1-11 Isomer 1 (racemic)], the EC50 in test [1] is 251 nM; in test [2] (setting [5]), 126 nM. The Emax in test [1] turned out to be 107%. Also, in test [2] (setting [6]), the “% Emax cf. ACh, M4” value was determined as 72%.
